# Assay results taken from ChEMBL document CHEMBL1136550, “Discovery of orally bioavailable NK1 receptor antagonists” (Bioorg Med Chem Lett, 2003).
# Assays:
# Substance-P receptor [1] = target: T1, Substance-P receptor (Homo sapiens, UniProt P25103); assay: Displacement of [3H]-substance P from human NK1 receptor expressed in CHO cells; assay type: cell-based
# Substance-P receptor [2] = target: T1, Substance-P receptor; assay: Displacement of [3H]-substance P from human NK1 receptor expressed in CHO cells, at 10e-5 M; assay type: cell-based
# [3] = LogD distribution coefficient between octanol and PBS at pH7.4; assay type: physicochemical; conditions: pH 7.4, read-out: LogD7.4
# [4] = Solubility was measured; assay type: physicochemical
# Caco-2 = assay: Caco-2 permeability was measured; assay type: functional, cell-based; conditions: Homo sapiens
# Rattus norvegicus = organism: Rattus norvegicus; assay: Inhibition of contraction induced by 100 mM KCl in isolated rat aorta; assay type: functional
# [5] = pKa value was evaluated; assay type: physicochemical
# Cavia porcellus [6] = assay: Inhibition of SP-induced pulmonary edema in guinea-pig 240 min after oral administration at a dose of 1 mg/kg; assay type: functional; conditions: 4 h
# Cavia porcellus [7] = assay: Inhibition of SP-induced pulmonary edema in guinea-pig 30 min after oral administration at a dose of 1 mg/kg; assay type: functional; conditions: 0.5 h
# Cavia porcellus [8] = assay: Inhibition of SP-induced pulmonary edema in guinea-pig 60 min after oral administration at a dose of 1 mg/kg; assay type: functional; conditions: 1 h
# Cavia porcellus [9] = assay: Inhibition of SP-induced pulmonary edema in guinea-pig 240 min after oral administration at a dose of 10 mg/kg; assay type: functional; conditions: 4 h
# Cavia porcellus [10] = assay: Inhibition of SP-induced pulmonary edema in guinea-pig 30 min after oral administration at a dose of 10 mg/kg; assay type: functional; conditions: 0.5 h
# Cavia porcellus [11] = assay: Inhibition of SP-induced pulmonary edema in guinea-pig 120 min after oral administration at a dose of 10 mg/kg; assay type: functional; conditions: 2 h
# Cavia porcellus [12] = assay: Inhibition of SP-induced pulmonary edema in guinea-pig 60 min after oral administration at a dose of 10 mg/kg; assay type: functional; conditions: 1 h
# T1 sequence (P25103 whole entry): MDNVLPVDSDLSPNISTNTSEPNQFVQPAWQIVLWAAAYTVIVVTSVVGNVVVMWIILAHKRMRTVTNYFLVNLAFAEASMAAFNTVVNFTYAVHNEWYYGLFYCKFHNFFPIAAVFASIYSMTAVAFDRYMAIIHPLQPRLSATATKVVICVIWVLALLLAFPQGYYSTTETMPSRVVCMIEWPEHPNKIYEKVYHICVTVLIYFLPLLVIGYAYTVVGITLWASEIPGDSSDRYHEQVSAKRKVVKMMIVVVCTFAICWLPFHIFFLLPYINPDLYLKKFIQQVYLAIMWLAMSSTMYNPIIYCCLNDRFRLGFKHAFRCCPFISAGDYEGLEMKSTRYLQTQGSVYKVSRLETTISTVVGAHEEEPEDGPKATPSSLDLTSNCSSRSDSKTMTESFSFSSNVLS
smiles,measurement,setting,value
COc1ccccc1C(COCc1cc(C(F)(F)F)cc(C(F)(F)F)c1)N1CCNCC1 (stereo not drawn),Ki,Substance-P receptor [1],6.31 nM
FC(F)(F)Oc1ccccc1COCC(c1ccccc1)N1CCNCC1 (stereo not drawn),inhibition,Substance-P receptor [2],50%
FC(F)(F)c1cc(COCC(c2ccccc2)N2CCN(CCCCc3nn[nH]n3)CC2)cc(C(F)(F)F)c1 (stereo not drawn),Ki,Substance-P receptor [1],6.31 nM
same,logD,[3],2.71
same,solubility,[4],200 µg/mL
Clc1cc(Cl)cc(COCC(c2ccccc2)N2CCNCC2)c1 (stereo not drawn),Ki,Substance-P receptor [1],3.16 nM
C[C@@H](OC[C@H](c1ccccc1)N1CCN(CC(=O)O)CC1)c1cc(C(F)(F)F)cc(C(F)(F)F)c1,inhibition,Substance-P receptor [2],< 20%
NC(=O)CN1CCN([C@@H](COCc2cc(C(F)(F)F)cc(C(F)(F)F)c2)c2ccccc2)CC1,Ki,Substance-P receptor [1],10 nM
same,Papps,Caco-2,7.9 ×10⁻⁶ cm/s
same,pD2,Rattus norvegicus,4.27
same,logD,[3],3.26
same,solubility,[4],2 µg/mL
same,pKa,[5],6.2
C[C@@H](OC[C@H](c1ccccc1)N1CCN(CCOCC(=O)O)CC1)c1cc(C(F)(F)F)cc(C(F)(F)F)c1,inhibition,Substance-P receptor [2],< 20%
C[C@H](OC[C@H](c1ccccc1)N1CCN(CCOCC(=O)O)CC1)c1cc(C(F)(F)F)cc(C(F)(F)F)c1,Papps,Caco-2,8.7 ×10⁻⁶ cm/s
same,pD2,Rattus norvegicus,<4
same,inhibition in vivo at 1 mg/kg,Cavia porcellus [6],70%
same,inhibition in vivo at 1 mg/kg,Cavia porcellus [7],77%
same,inhibition in vivo at 1 mg/kg,Cavia porcellus [8],75%
same,logD,[3],2.64
same,solubility,[4],> 2000 µg/mL
FC(F)(F)c1cc(COCC(c2ccccc2Cl)N2CCNCC2)cc(C(F)(F)F)c1 (stereo not drawn),Ki,Substance-P receptor [1],1.58 nM
FC(F)(F)c1cc(COCC(c2cccc3ccccc23)N2CCNCC2)cc(C(F)(F)F)c1 (stereo not drawn),Ki,Substance-P receptor [1],1.58 nM
O=C(O)CCCC(=O)N1CCN(C(COCc2cc(C(F)(F)F)cc(C(F)(F)F)c2)c2ccccc2)CC1 (stereo not drawn),inhibition,Substance-P receptor [2],< 20%
NC(=O)CN1CCN([C@H](COCc2cc(C(F)(F)F)cc(C(F)(F)F)c2)c2ccccc2)CC1,Ki,Substance-P receptor [1],7.94 nM
same,pKa,[5],6.2
COC(=O)CN1CCN(C(COCc2cc(C(F)(F)F)cc(C(F)(F)F)c2)c2ccccc2)CC1 (stereo not drawn),Ki,Substance-P receptor [1],39.8 nM
FC(F)(F)c1ccc(COCC(c2ccccc2)N2CCNCC2)c(C(F)(F)F)c1 (stereo not drawn),Ki,Substance-P receptor [1],15.8 nM
Brc1cc(Br)cc(COCC(c2ccccc2)N2CCNCC2)c1 (stereo not drawn),Ki,Substance-P receptor [1],5.01 nM
CCCCN1CCN(C(COCc2cc(C(F)(F)F)cc(C(F)(F)F)c2)c2ccccc2)CC1 (stereo not drawn),inhibition in vivo at 10 mg/kg,Cavia porcellus [9],58%
same,Ki,Substance-P receptor [1],2.51 nM
same,inhibition in vivo at 10 mg/kg,Cavia porcellus [10],62%
same,Papps,Caco-2,5.2 ×10⁻⁶ cm/s
same,pD2,Rattus norvegicus,4.6
same,logD,[3],4.09
same,solubility,[4],1 µg/mL
NC(=O)N1CCN(C(COCc2cc(C(F)(F)F)cc(C(F)(F)F)c2)c2ccccc2)CC1 (stereo not drawn),Ki,Substance-P receptor [1],20 nM
same,inhibition in vivo at 10 mg/kg,Cavia porcellus [10],15%
same,inhibition in vivo at 10 mg/kg,Cavia porcellus [11],26%
same,inhibition in vivo at 10 mg/kg,Cavia porcellus [12],47%
O=C(O)COCCN1CCN(C(COCc2cc(C(F)(F)F)cc(C(F)(F)F)c2)c2ccccc2)CC1 (stereo not drawn),inhibition in vivo at 10 mg/kg,Cavia porcellus [9],29%
same,Ki,Substance-P receptor [1],15.8 nM
same,inhibition in vivo at 10 mg/kg,Cavia porcellus [10],53%
same,Papps,Caco-2,4.2 ×10⁻⁶ cm/s
same,pD2,Rattus norvegicus,<4
same,inhibition in vivo at 10 mg/kg,Cavia porcellus [11],54%
same,inhibition in vivo at 10 mg/kg,Cavia porcellus [12],61%
same,logD,[3],2.17
same,solubility,[4],> 2000 µg/mL
FC(F)(F)c1cc(COCC(c2cccc(Cl)c2)N2CCNCC2)cc(C(F)(F)F)c1 (stereo not drawn),Ki,Substance-P receptor [1],1.58 nM
COc1cc(CN2CCN(C(COCc3cc(C(F)(F)F)cc(C(F)(F)F)c3)c3ccccc3)C(Cc3ccccc3)C2)cc(OC)c1OC (stereo not drawn),Ki,Substance-P receptor [1],251 nM
same,logD,[3],5.2
same,solubility,[4],0.6 µg/mL
FC(F)(F)c1cc(COCC(c2ccccc2)N2CCN(Cc3nn[nH]n3)CC2)cc(C(F)(F)F)c1 (stereo not drawn),Ki,Substance-P receptor [1],63.1 nM
N#CCN1CCN(C(COCc2cc(C(F)(F)F)cc(C(F)(F)F)c2)c2ccccc2)CC1 (stereo not drawn),Ki,Substance-P receptor [1],7.94 nM
Cc1cc(C)cc(COCC(c2ccccc2)N2CCNCC2)c1 (stereo not drawn),Ki,Substance-P receptor [1],25.1 nM
Clc1ccccc1COCC(c1ccccc1)N1CCNCC1 (stereo not drawn),inhibition,Substance-P receptor [2],50%
C[C@@H](OC[C@@H](c1ccccc1)N1CCN(CCOCC(=O)O)CC1)c1cc(C(F)(F)F)cc(C(F)(F)F)c1,inhibition,Substance-P receptor [2],< 20%
c1ccc(COCC(c2ccccc2)N2CCNCC2)cc1 (stereo not drawn),inhibition,Substance-P receptor [2],< 20%
CCOC(=O)N1CCN(C(COCc2cc(C(F)(F)F)cc(C(F)(F)F)c2)c2ccccc2)CC1 (stereo not drawn),Ki,Substance-P receptor [1],63.1 nM
FC(F)(F)c1cc(COCC(c2ccccc2)N2CCN(CCCCc3nnn[nH]3)CC2)cc(C(F)(F)F)c1 (stereo not drawn),inhibition in vivo at 10 mg/kg,Cavia porcellus [9],20%
same,inhibition in vivo at 10 mg/kg,Cavia porcellus [10],65%
same,Papps,Caco-2,2.6 ×10⁻⁶ cm/s
same,pD2,Rattus norvegicus,<4
same,inhibition in vivo at 10 mg/kg,Cavia porcellus [11],65%
same,inhibition in vivo at 10 mg/kg,Cavia porcellus [12],99%
FC(F)(F)c1cc(COCC(c2ccc3ccccc3c2)N2CCNCC2)cc(C(F)(F)F)c1 (stereo not drawn),Ki,Substance-P receptor [1],31.6 nM
FC(F)(F)c1cc(COCC(c2ccc(Cl)c(Cl)c2)N2CCNCC2)cc(C(F)(F)F)c1 (stereo not drawn),Ki,Substance-P receptor [1],6.31 nM
FC(F)(F)c1cc(COCC(c2ccccc2)N2CCN(Cc3ccccn3)CC2)cc(C(F)(F)F)c1 (stereo not drawn),Ki,Substance-P receptor [1],2 nM
C[C@H](OC[C@H](c1ccccc1)N1CCN(CC(=O)O)CC1)c1cc(C(F)(F)F)cc(C(F)(F)F)c1,Ki,Substance-P receptor [1],1.26 nM
O=C(O)CN1CCN(C(COCc2cc(C(F)(F)F)cc(C(F)(F)F)c2)c2ccccc2)CC1 (stereo not drawn),inhibition in vivo at 10 mg/kg,Cavia porcellus [9],53%
same,Ki,Substance-P receptor [1],15.8 nM
same,inhibition in vivo at 10 mg/kg,Cavia porcellus [10],84%
same,Papps,Caco-2,9.6 ×10⁻⁶ cm/s
same,pD2,Rattus norvegicus,<4
same,inhibition in vivo at 10 mg/kg,Cavia porcellus [11],68%
same,inhibition in vivo at 10 mg/kg,Cavia porcellus [12],76%
same,logD,[3],2.35
same,solubility,[4],1300 µg/mL
COc1c(Br)cc(Br)cc1COCC(c1ccccc1)N1CCNCC1 (stereo not drawn),Ki,Substance-P receptor [1],7.94 nM
Fc1cccc(C(COCc2cc(C(F)(F)F)cc(C(F)(F)F)c2)N2CCNCC2)c1 (stereo not drawn),Ki,Substance-P receptor [1],2 nM
COc1ccc(C(COCc2cc(C(F)(F)F)cc(C(F)(F)F)c2)N2CCNCC2)cc1 (stereo not drawn),Ki,Substance-P receptor [1],50.1 nM
C[C@@H](OC[C@@H](c1ccccc1)N1CCN(CC(=O)O)CC1)c1cc(C(F)(F)F)cc(C(F)(F)F)c1,inhibition,Substance-P receptor [2],< 20%
C[C@H](OC[C@@H](c1ccccc1)N1CCN(CC(=O)O)CC1)c1cc(C(F)(F)F)cc(C(F)(F)F)c1,Ki,Substance-P receptor [1],3.16 nM
FC(F)(F)c1cc(COCC(c2ccccc2)N2CCNCC2)cc(C(F)(F)F)c1 (stereo not drawn),Papps,Caco-2,2.1 ×10⁻⁶ cm/s
same,pD2,Rattus norvegicus,5.38
same,logD,[3],2.41
same,solubility,[4],200 µg/mL
Cc1ccccc1C(COCc1cc(C(F)(F)F)cc(C(F)(F)F)c1)N1CCNCC1 (stereo not drawn),Ki,Substance-P receptor [1],1 nM
Fc1cccc(C(COCc2cc(C(F)(F)F)cc(C(F)(F)F)c2)N2CCNCC2)c1F (stereo not drawn),Ki,Substance-P receptor [1],3.16 nM
FC(F)(F)c1cc(COCC(c2ccccc2)N2CCN(CCN3CCOCC3)CC2)cc(C(F)(F)F)c1 (stereo not drawn),Ki,Substance-P receptor [1],15.8 nM
Fc1cc(COCC(c2ccccc2)N2CCNCC2)cc(C(F)(F)F)c1 (stereo not drawn),Ki,Substance-P receptor [1],12.6 nM
Clc1cccc(COCC(c2ccccc2)N2CCNCC2)c1 (stereo not drawn),Ki,Substance-P receptor [1],398 nM
Fc1ccc(C(COCc2cc(C(F)(F)F)cc(C(F)(F)F)c2)N2CCNCC2)cc1 (stereo not drawn),Ki,Substance-P receptor [1],79.4 nM
Cc1cccc(C(COCc2cc(C(F)(F)F)cc(C(F)(F)F)c2)N2CCNCC2)c1 (stereo not drawn),Ki,Substance-P receptor [1],3.16 nM
Fc1cc(F)cc(COCC(c2ccccc2)N2CCNCC2)c1 (stereo not drawn),Ki,Substance-P receptor [1],200 nM
Clc1ccc(COCC(c2ccccc2)N2CCNCC2)cc1Cl (stereo not drawn),Ki,Substance-P receptor [1],100 nM
Oc1n[nH]c(CN2CCN(C(COCc3cc(C(F)(F)F)cc(C(F)(F)F)c3)c3ccccc3)CC2)n1 (stereo not drawn),Ki,Substance-P receptor [1],15.8 nM
CN1CCN(C(COCc2cc(C(F)(F)F)cc(C(F)(F)F)c2)c2ccccc2)CC1 (stereo not drawn),Ki,Substance-P receptor [1],1.58 nM
COc1cccc(C(COCc2cc(C(F)(F)F)cc(C(F)(F)F)c2)N2CCNCC2)c1 (stereo not drawn),Ki,Substance-P receptor [1],1 nM
O=C(O)CCCCN1CCN(C(COCc2cc(C(F)(F)F)cc(C(F)(F)F)c2)c2ccccc2)CC1 (stereo not drawn),Ki,Substance-P receptor [1],10 nM
COc1cc(COCC(c2ccccc2)N2CCNCC2)cc(OC)c1OC (stereo not drawn),Ki,Substance-P receptor [1],126 nM
FC(F)(F)c1cc(COCC(c2cccs2)N2CCNCC2)cc(C(F)(F)F)c1 (stereo not drawn),Ki,Substance-P receptor [1],7.94 nM
NC(=O)COCCN1CCN(C(COCc2cc(C(F)(F)F)cc(C(F)(F)F)c2)c2ccccc2)CC1 (stereo not drawn),Ki,Substance-P receptor [1],3.16 nM
same,pKa,[5],7.4
COc1ccccc1COCC(c1ccccc1)N1CCNCC1 (stereo not drawn),inhibition,Substance-P receptor [2],< 20%
FC(F)(F)c1cc(COCC(c2ccco2)N2CCNCC2)cc(C(F)(F)F)c1 (stereo not drawn),Ki,Substance-P receptor [1],158 nM
Fc1ccccc1C(COCc1cc(C(F)(F)F)cc(C(F)(F)F)c1)N1CCNCC1 (stereo not drawn),Ki,Substance-P receptor [1],5.01 nM
